Data from patent US20160114000A1 (Merck Sharp & Dohme, published 2016).
*1 amine or outer side, *2 acyl side, *3 side chain or, on linkers, in order; H or OH if unused. Where a SMILES comes first, the peptide text is derived from it. Side-chain parts run from the residue outwards. [ ]: non-standard residue; d: D form. The star is where a group is joined. Phe(4-CH2NH2) = NCc1ccc(C[C@H](N)C(=O)O)cc1; γGlu = O=C(O)[C@H](CCC(=O)[*:2])N[*:1]; Palmitoyl = CCCCCCCCCCCCCCCC(=O)*

Experiments:
[1] = target: T1, human GCGR (Homo sapiens, UniProt P47871); experiment: cAMP protocol, cells expressing human GCGR; assay type: cell-based; settings: for EC50: cAMP production, 20% human serum in assay buffer; for hGCGR/hGLP1R (hTone): ratio of EC50 at human GCGR to EC50 at human GLP1R
T1 construct: expressed in transfected cells; grown under Geneticin and Hygromycin selection
T1 sequence (P47871 26-477): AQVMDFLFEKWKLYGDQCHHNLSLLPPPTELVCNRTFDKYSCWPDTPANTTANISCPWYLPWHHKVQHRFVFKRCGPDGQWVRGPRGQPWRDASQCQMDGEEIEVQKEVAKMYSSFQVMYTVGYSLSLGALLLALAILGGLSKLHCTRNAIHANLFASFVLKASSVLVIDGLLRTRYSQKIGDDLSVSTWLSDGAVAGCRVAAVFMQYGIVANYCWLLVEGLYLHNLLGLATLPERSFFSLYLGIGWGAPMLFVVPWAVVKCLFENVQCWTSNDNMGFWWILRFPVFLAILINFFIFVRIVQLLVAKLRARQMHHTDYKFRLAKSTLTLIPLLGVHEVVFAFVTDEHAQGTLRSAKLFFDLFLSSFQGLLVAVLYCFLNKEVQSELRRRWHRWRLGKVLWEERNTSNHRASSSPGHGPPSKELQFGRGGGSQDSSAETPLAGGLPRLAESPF
Protocol: The cAMP protocol was as follows.
(§1) Peptides were dissolved in 100% DMSO and serially diluted to generate 11 point titrations. The peptide solutions were then transferred into 384-well assay plates (150 nL/well). Assay ready frozen cells expressing human GLP-1R or human GCGR were suspended in growth media consisting of DMEM/F12 medium (GIBCO), 10% FBS (GIBCO), lx P/S (GIBCO), 800 μg/mL Geneticin (GIBCO), and 300 μg/mL Hygromycin (Invitrogen). Cells were then diluted in assay buffer consisting of PBS (GIBCO), 7.5% BSA (Perkin Elmer), 100 μM RO 20-1724 (Sigma), and 20% human serum (MP Biomedical). The cell suspensions (15 μL) were then added to the assay plates containing the peptide solutions (30,000 cells/well for human GCGR; 20,000 cells/well for GLP1R). The cells were incubated for 1 hour at room temperature in the dark. Production of cAMP was determined using HitHunter™ cAMPXS kits (DiscoverX). ED buffer (20 μL) was then added to each well and the plates were incubated for 1 hour at room temperature in the dark. Subsequently, EA buffer (20 μL) was added to each well, and the plates were incubated for 1-18 hours at room temperature in the dark. Luminescence was measured using an EnVision Multilabel plate reader (Perkin Elmer). EC50 values were calculated using ADA data analyzer software.

[2] = target: T2, human GLP-1R (Homo sapiens, UniProt P43220); experiment: cAMP protocol, cells expressing human GLP-1R; assay type: cell-based; settings: cAMP production, 20% human serum in assay buffer; read-out: GLPR1 EC50 (nM) human
T2 construct: expressed in transfected cells; grown under Geneticin and Hygromycin selection
T2 sequence (P43220 24-463): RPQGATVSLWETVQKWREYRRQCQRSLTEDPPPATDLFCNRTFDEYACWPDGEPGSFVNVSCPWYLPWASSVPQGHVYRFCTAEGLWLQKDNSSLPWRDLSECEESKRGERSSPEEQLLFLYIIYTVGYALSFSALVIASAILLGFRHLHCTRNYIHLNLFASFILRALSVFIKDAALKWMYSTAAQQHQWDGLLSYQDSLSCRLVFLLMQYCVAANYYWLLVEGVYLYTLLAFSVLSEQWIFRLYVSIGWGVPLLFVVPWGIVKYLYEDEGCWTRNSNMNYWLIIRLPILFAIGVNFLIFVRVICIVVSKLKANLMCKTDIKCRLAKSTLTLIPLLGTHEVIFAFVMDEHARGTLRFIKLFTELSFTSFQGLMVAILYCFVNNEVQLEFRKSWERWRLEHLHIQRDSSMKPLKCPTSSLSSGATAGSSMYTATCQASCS
Protocol: The cAMP protocol was as follows.
as §1

[3] = system: diet-induced obese (DIO) mice (strain C57Bl6/NTac); experiment: Cumulative body weight change (grams) in DIO mice, Example 18; assay type: in vivo; settings: day 9; for weight loss: 9 nmol/kg daily
Protocol: Mice were administered a vehicle control or a dose of a peptide daily for nine days. […] The peptide of SEQ ID NO: 9 was administered at doses of 9 and 25 nmol/kg. Cumulative body weight change (grams) was measured each day of the study except on day 3. Results are shown in FIG. 1 and are expressed as mean±SEM.

[4] = system: DIO mice (strain C57Bl6/NTac); experiment: Body weight change (%) relative to vehicle in DIO mice, second study, Example 19; assay type: in vivo; settings: eight days
Protocol: In addition, the peptide of SEQ ID NO: 8 was administered at 15 nmol/kg, while the peptide of SEQ ID NOs: 10 and 11 were administered at 3 nmol/kg. Body weight was measured daily for eight days and body weight change is expressed as percent relative to vehicle (FIG. 2).

[5] = system: DIO mice (strain C57Bl6/NTac); experiment: Ambient glucose levels in DIO mice, Example 21; assay type: in vivo; settings: for changes in ambient glucose: 9 nmol/kg, after 9 days of dosing
Protocol: In addition to cumulative body weight change, ambient glucose levels of the DIO mice (strain C57Bl6/NTac) were measured periodically throughout the study.

[6] = system: DIO mice (strain C57Bl6/NTac); experiment: Cumulative food intake in DIO mice, Example 20; assay type: in vivo; settings: 3 nmol/kg, after 8 days of dosing, vs vehicle
Source text: For the studies in Examples 18, 19, 20, and 21, diet induced obesity (DIO) mice (strain C57Bl6/NTac; 20 weeks on a high fat diet, about 47 g) were divided into groups of eight mice per group and the initial average body weight, food intake and basal glucose of each group were matched before peptide administration. Each group of mice was subcutaneously injected daily with a dose of Co-agonist Peptide or vehicle control for 7 to 10 days. The peptides tested in this study were Co-agonist Peptides 1, 2, 3, 4, 5, and 6 (SEQ ID NOs: 6, 7, 8, 9, 10, and 11, respectively) at the doses that varied from 3 nmol/kg to 25 nmol/kg. Body weight, food intake and basal glucose were measured periodically during treatment.

SMILES	EC50 [1]	hGCGR/hGLP1R (hTone) [1]	EC50 [2]	weight loss [3]	body weight loss ([3]; 25 nmol/kg daily)	weight loss, percent relative to vehicle ([4]; 9 nmol/kg daily)	changes in ambient glucose [5]	decrease in ambient glucose compared to vehicle ([5]; 25 nmol/kg, second day of dosing)	food intake [6]	weight loss, percent relative to vehicle ([4]; 3 nmol/kg daily)
CCCCCCCCCCCCCCCC(=O)N[C@@H](CCC(=O)N[C@@H](CCC(=O)NCc1ccc(C[C@H](NC(=O)[C@H](CC(=O)O)NC(=O)[C@H](CO)NC(=O)[C@@H](NC(=O)[C@H](Cc2ccccc2)NC(=O)[C@@H](NC(=O)CNC(=O)[C@H](CCC(N)=O)NC(=O)[C@@H](CO)NC(=O)[C@@H](N)Cc2c[nH]cn2)[C@@H](C)O)[C@@H](C)O)C(=O)N[C@@H](CO)C(=O)N[C@@H](CCCCN)C(=O)N[C@@H](Cc2ccc(O)cc2)C(=O)N[C@@H](CC(C)C)C(=O)N[C@@H](CC(=O)O)C(=O)N[C@@H](C)C(=O)N[C@@H](CCCNC(=N)N)C(=O)N[C@@H](C)C(=O)N[C@@H](C)C(=O)N[C@@H](CCC(N)=O)C(=O)N[C@@H](CC(=O)O)C(=O)N[C@@H](Cc2ccccc2)C(=O)N[C@H](C(=O)N[C@@H](CCC(N)=O)C(=O)N[C@@H](Cc2c[nH]c3ccccc23)C(=O)N[C@@H](CC(C)C)C(=O)N[C@@H](CC(C)C)C(=O)N[C@@H](CC(=O)O)C(=O)N[C@H](C(N)=O)[C@@H](C)O)C(C)C)cc1)C(=O)O)C(=O)O [SEQ ID NO: 17, His^1-D-Ser^2-Gln-Gly-Thr-Phe-Thr-Ser-Asp-pAF^10(γGlu-γGlu-C16)-Ser-Lys-Tyr-Leu-Asp^15-Ala^16-Arg-Ala-Ala-Gln-Asp-Phe^22-Val^23-Gln-Trp^25-Leu-Leu-Asp-Thr-CONH2] (H-H[dS]QGTFTSD[Phe(4-CH2NH2)]([γGlu-γGlu-Palmitoyl])SKYLDARAAQDFVQWLLDT-NH2)	0.05 nM	0.98	0.05 nM							
CCCCCCCCCCCCCCCC(=O)N[C@@H](CCC(=O)N[C@@H](CCC(=O)NCCCC[C@H](NC(=O)[C@H](CC(=O)O)NC(=O)[C@H](CO)NC(=O)[C@@H](NC(=O)[C@H](Cc1ccccc1)NC(=O)[C@@H](NC(=O)CNC(=O)[C@H](CCC(N)=O)NC(=O)[C@@H](CO)NC(=O)[C@@H](N)Cc1c[nH]cn1)[C@@H](C)O)[C@@H](C)O)C(=O)N[C@@H](CO)C(=O)N[C@@H](CCCCN)C(=O)N[C@@H](Cc1ccc(O)cc1)C(=O)N[C@@H](CC(C)C)C(=O)N[C@@H](CC(=O)O)C(=O)N[C@@H](CCC(=O)O)C(=O)N[C@@H](CCCNC(=N)N)C(=O)N[C@@H](C)C(=O)N[C@@H](C)C(=O)N[C@@H](CCC(N)=O)C(=O)N[C@@H](CC(=O)O)C(=O)N[C@@H](Cc1ccccc1)C(=O)N[C@H](C(=O)N[C@@H](CCC(N)=O)C(=O)N[C@@H](Cc1c[nH]c2ccccc12)C(=O)N[C@@H](CC(C)C)C(=O)N[C@@H](CCS(C)(=O)=O)C(=O)N[C@@H](CC(=O)O)C(=O)N[C@H](C(N)=O)[C@@H](C)O)C(C)C)C(=O)O)C(=O)O [SEQ ID NO: 15]	0.02 nM	1.10	0.02 nM							
CCCCCCCCCCCCCCCC(=O)N[C@@H](CCC(=O)N[C@@H](CCC(=O)NCCCC[C@H](NC(=O)[C@H](CC(=O)O)NC(=O)[C@H](CO)NC(=O)[C@@H](NC(=O)[C@H](Cc1ccccc1)NC(=O)[C@@H](NC(=O)CNC(=O)[C@@H](NC(=O)C(C)(C)NC(=O)[C@@H](N)Cc1c[nH]cn1)C(C)C)[C@@H](C)O)[C@@H](C)O)C(=O)N[C@@H](CO)C(=O)N[C@@H](CCCCN)C(=O)N[C@@H](Cc1ccc(O)cc1)C(=O)N[C@@H](CC(C)C)C(=O)N[C@@H](CC(=O)O)C(=O)NC(C)(C)C(=O)N[C@@H](CCCNC(=N)N)C(=O)N[C@@H](C)C(=O)N[C@@H](C)C(=O)N[C@@H](CCC(N)=O)C(=O)N[C@@H](CC(=O)O)C(=O)N[C@@H](Cc1ccccc1)C(=O)N[C@H](C(=O)N[C@@H](CCC(N)=O)C(=O)N[C@@H](Cc1c[nH]c2ccccc12)C(=O)N[C@@H](CC(C)C)C(=O)N[C@@H](CCCC)C(=O)N[C@@H](CC(=O)O)C(=O)N[C@H](C(N)=O)[C@@H](C)O)C(C)C)C(=O)O)C(=O)O [SEQ ID NO: 9]	0.89 nM	8.98	0.1 nM	~3 grams	10.5 grams	approximately 5%	did not exhibit significant changes	-75 mg/dL		
CCCCCCCCCCCCCCCC(=O)N[C@@H](CCC(=O)N[C@@H](CCC(=O)NCCCC[C@H](NC(=O)[C@H](CC(=O)O)NC(=O)[C@H](CO)NC(=O)[C@@H](NC(=O)[C@H](Cc1ccccc1)NC(=O)[C@@H](NC(=O)CNC(=O)[C@H](CCC(N)=O)NC(=O)[C@@H](CO)NC(=O)[C@@H](N)Cc1c[nH]cn1)[C@@H](C)O)[C@@H](C)O)C(=O)N[C@@H](CO)C(=O)N[C@@H](CCCCN)C(=O)N[C@@H](Cc1ccc(O)cc1)C(=O)N[C@@H](CC(C)C)C(=O)N[C@@H](CC(=O)O)C(=O)N[C@@H](C)C(=O)N[C@@H](CCCNC(=N)N)C(=O)N[C@@H](C)C(=O)N[C@@H](C)C(=O)N[C@@H](CCC(N)=O)C(=O)N[C@@H](CC(=O)O)C(=O)N[C@@H](Cc1ccccc1)C(=O)N[C@H](C(=O)N[C@@H](CCC(N)=O)C(=O)N[C@@H](Cc1c[nH]c2ccccc12)C(=O)N[C@@H](CC(C)C)C(=O)N[C@@H](CC(C)C)C(=O)N[C@@H](CC(=O)O)C(=O)N[C@H](C(N)=O)[C@@H](C)O)C(C)C)C(=O)O)C(=O)O [SEQ ID NO: 10]		0.90		approximately 13 grams					significant suppression of food intake	approximately 17%
CCCCCCCCCCCCCCCC(=O)N[C@@H](CCC(=O)NCCCC[C@H](NC(=O)[C@H](CC(=O)O)NC(=O)[C@H](CO)NC(=O)[C@@H](NC(=O)[C@H](Cc1ccccc1)NC(=O)[C@@H](NC(=O)CNC(=O)[C@H](CCC(N)=O)NC(=O)[C@@H](CO)NC(=O)[C@@H](N)Cc1c[nH]cn1)[C@@H](C)O)[C@@H](C)O)C(=O)N[C@@H](CO)C(=O)N[C@@H](CCCCN)C(=O)N[C@@H](Cc1ccc(O)cc1)C(=O)N[C@@H](CC(C)C)C(=O)N[C@@H](CC(=O)O)C(=O)N[C@H](C(=O)N[C@@H](CCCNC(=N)N)C(=O)N[C@@H](C)C(=O)N[C@@H](C)C(=O)N[C@@H](CCC(N)=O)C(=O)N[C@@H](CC(=O)O)C(=O)N[C@@H](Cc1ccccc1)C(=O)N[C@H](C(=O)N[C@@H](CCC(N)=O)C(=O)N[C@@H](Cc1c[nH]c2ccccc12)C(=O)N[C@@H](CC(C)C)C(=O)N[C@@H](CC(C)C)C(=O)N[C@@H](CC(=O)O)C(=O)N[C@H](C(N)=O)[C@@H](C)O)C(C)C)C(C)C)C(=O)O [SEQ ID NO: 7] (H-H[dS]QGTFTSDK([γGlu-Palmitoyl])SKYLDVRAAQDFVQWLLDT-NH2; N-terminus assumed)	0.041 nM	0.30	0.16 nM	~3 grams		approximately 5%	did not exhibit significant changes			
CCCCCCCCCCCCCCCC(=O)N[C@@H](CCC(=O)N[C@@H](CCC(=O)NCCCC[C@H](NC(=O)[C@H](CC(=O)O)NC(=O)[C@H](CO)NC(=O)[C@@H](NC(=O)[C@H](Cc1ccccc1)NC(=O)[C@@H](NC(=O)CNC(=O)[C@H](CCC(N)=O)NC(=O)[C@@H](CO)NC(=O)[C@@H](N)Cc1c[nH]cn1)[C@@H](C)O)[C@@H](C)O)C(=O)N[C@@H](CO)C(=O)N[C@@H](CCCCN)C(=O)N[C@@H](Cc1ccc(O)cc1)C(=O)N[C@@H](CC(C)C)C(=O)N[C@@H](CC(=O)O)C(=O)N[C@@H](CCC(=O)O)C(=O)N[C@@H](CCCNC(=N)N)C(=O)N[C@@H](C)C(=O)N[C@@H](C)C(=O)N[C@@H](CCC(N)=O)C(=O)N[C@@H](CC(=O)O)C(=O)N[C@@H](Cc1ccccc1)C(=O)N[C@H](C(=O)N[C@@H](CCC(N)=O)C(=O)N[C@@H](Cc1c[nH]c2ccccc12)C(=O)N[C@@H](CC(C)C)C(=O)N[C@@H](CC(C)C)C(=O)N[C@@H](CC(=O)O)C(=O)N[C@H](C(N)=O)[C@@H](C)O)C(C)C)C(=O)O)C(=O)O [SEQ ID NO: 11, reference compound]		1.30		approximately 13 grams					no change in food intake	no weight loss efficacy
